Experimental data: patent US6482819B1, “2,3-benzodiazepine derivatives” (Gyogyszerkutato Intezet Kft., priority 1997, dated 2002)

Assays:
CD 1 mice [1] = assay: Muscle relaxant activity, inclined screen test; type: in vivo; conditions: Mus musculus, ip
Method: (§1) The muscle relaxant activity of the compounds of general formula (I) was measured in the “inclined screen” test of Randall [J. Pharmacol. Exp. Ther. 129, 163 (1960)] and in the rotarod test [J. Am. Pharm. Assoc. 46, 208 (1975)]. The compounds were administered in 3 i. p. doses to ten CD 1 mice in each dose group.

CD 1 mice [2] = assay: Muscle relaxant activity, rotarod test; type: in vivo; conditions: Mus musculus, ip
Method: as §1

[3] = test system: nicotine induced convulsions in mice; assay: Anticonvulsive effect, nicotine induced convulsions; type: in vivo; conditions: Mus musculus, po, 60 minutes pretreatment
Method: (§2) In Table I the anticonvulsive effect of some compounds of the invention in the electroshock test is presented [J. Pharmacol. Exp. Ther. 106, 319 (1952)]. The anticonvulsive effect was also studied in convulsions induced by various chemical agents, e. g. pentetrazole [J. Pharmacol. Exp. Ther 108, 168 (1953)], strychnine [J. Pharmacol. Exp. Ther. 129, 75 (1960)], bemegride, nicotine, bicuculline, 4-aminopyridine and 3-mercaptopropionic acid. The pretreatment period was 60 minutes. The test compounds were administered orally in 3 doses to 10 male CD 1 mice in each dose group.

[4] = test system: electroshock convulsions in mice; assay: Anticonvulsive effect, electroshock test; type: in vivo; conditions: Mus musculus, po, 60 minutes pretreatment
Method: as §2

[5] = test system: bemegride induced convulsions in mice; assay: Anticonvulsive effect, bemegride induced convulsions; type: in vivo; conditions: Mus musculus, po, 60 minutes pretreatment
Method: as §2

[6] = test system: pentetrazole induced convulsions in mice; assay: Anticonvulsive effect, pentetrazole induced convulsions; type: in vivo; conditions: Mus musculus, po, 60 minutes pretreatment
Method: as §2

[7] = test system: bicuculline induced convulsions in mice; assay: Anticonvulsive effect, bicuculline induced convulsions; type: in vivo; conditions: Mus musculus, po, 60 minutes pretreatment
Method: as §2

[8] = test system: kainate (5 μM) induced spreading depression, isolated chicken retina; assay: Inhibition of kainate induced spreading depression in the isolated chicken retina preparation; type: cell-based; conditions: Gallus gallus
Excerpt: (§3) In the first model the “spreading depression” inducing effect of glutamate agonists was studied, while in the second model the transmembrane ion current induced by the activation of glutamate receptors was directly measured.
(§4) Inhibition of AMPA and Kainate Induced “Spreading depression” in the Isolated Chicken Retina Preparation
(§5) The kainate and AMPA antagonizing effect was studied in vitro in the retinal “spreading depression” model [M. J. Sheardown: Brain Res. 607, 189 (1993)]. The AMPA/kainate antagonists extend the latency of the kainate (5 μM) or AMPA (5 μM) induced development of “spreading depression”.

[9] = test system: AMPA (5 μM) induced spreading depression, isolated chicken retina; assay: Inhibition of AMPA induced spreading depression in the isolated chicken retina preparation; type: cell-based; conditions: Gallus gallus
Excerpt: as §3, §4, §5

[10] = test system: AMPA receptors (kainate induced current, Purkinje cells); assay: Inhibition of kainate induced whole cell currents on Purkinje cells of the cerebellum; type: cell-based; conditions: 100 μM kainate, read-out: IC50 against kainate, whole cell currents
Method: (§6) Inhibition of AMPA and Kainate Induced Transmembrane Currents
(§7) The effect of the compound of Example 17 on whole cell currents induced by 100 μM kainate or 5 μM AMPA, resp., was studied on Purkinje cells of the cerebellum according to the method of Bleakman et al. [Neuropharmacology 12, 1689 (1996)]. […] In this preparation kainate was also exerting its effect through the activation of AMPA receptors.

[11] = test system: AMPA receptors (AMPA induced current, Purkinje cells); assay: Inhibition of AMPA induced whole cell currents on Purkinje cells of the cerebellum; type: cell-based
Method: as §6, §7

[12] = test system: anesthesized rats, middle cerebral artery occlusion; assay: Inhibition of focal ischemia, middle cerebral artery occlusion (MCAO) test; type: in vivo; conditions: for Infarcted area in percent of cerebral hemosphere / Score of infarcted area (size of infarcted area) / Change % of size of infarcted area: MCAO; for Change % of size of infarcted area: versus vehicle
Method: The focal ischemia inhibiting effect of the compound of Example 17 was studied on the “middle cerebral artery occlusion” (MCAO) test in anesthesized rats. […] After histological processing the developed infarcted area was measured by a computerized scanner program [R. T. Bartus: Stroke 11, 2265 (1994) and S. G. Sydserff: Brit. J. Pharmacol. 114, 1631 (1995)].

| Compound | ED50 (CD 1 mice [1]) | ED50 (CD 1 mice [2]) | ED50 [3] | ED50 [4] | ED50 [5] | ED50 [6] | melting point | ED50 [7] | IC50 [8] | IC50 [9] | IC50 [10] | IC50 ([11]; Purkinje cells of the cerebellum, 5 μM AMPA, read-out: IC50 against AMPA, whole cell currents) | Inhibition of ion current induced by AMPA receptor activation relative to GYKI 52466 ([11]; Purkinje cells, compared by IC50 values) | Rate of cerebral cell damage induced by occlusion of the middle cerebral artery ([12]; 6×1 mg/kg i.v.) | Infarcted area in percent of cerebral hemosphere ([12]; 6 × 1 mg/kg i.v.) | Score of infarcted area (size of infarcted area) ([12]; 6 × 1 mg/kg i.v.) | Change % of size of infarcted area ([12]; 6 × 1 mg/kg i.v.) | Infarcted area in percent of cerebral hemosphere ([12]; 6 × 2 mg/kg i.v.) | Score of infarcted area (size of infarcted area) ([12]; 6 × 2 mg/kg i.v.) | Change % of size of infarcted area ([12]; 6 × 2 mg/kg i.v.) |
| --- | --- | --- | --- | --- | --- | --- | --- | --- | --- | --- | --- | --- | --- | --- | --- | --- | --- | --- | --- | --- |
| NCC(CC(=O)O)c1ccc(Cl)cc1 (stereo not drawn) [Baclofen, reference compound] | 26 mg/kg | 13 mg/kg | – | – | – | – | – | – | – | – | – | – | – | – | – | – | – | – | – | – |
| O=C1NC(=O)C(c2ccccc2)(c2ccccc2)N1 [Phenytoin, reference compound] | – | – | 12 mg/kg | 10 mg/kg | > 200 mg/kg | > 400 mg/kg | – | – | – | – | – | – | – | – | – | – | – | – | – | – |
| Cc1cn2c(n1)Cc1ccc(Cl)cc1C(c1ccc(N)cc1)=N2 [Example 17] | 36 mg/kg | 16 mg/kg | 13 mg/kg | 24 mg/kg | – | – | 229 to 230 °C | 23 mg/kg | 2.5 µM | 7.3 µM | 4.97 µM | 2.02 µM | twice as strongly inhibited | significantly reduced | 13.4 ± 3.64% | 16122 ± 4368 | −60.2% | 11.0 ± 1.93% | 13229 ± 2313 | −67.4% |
